Experimental data published in patent US20190322676A1, “CERAMIDE GALACTOSYLTRANSFERASE INHIBITORS FOR THE TREATMENT OF DISEASE” (BioMarin Pharmaceutical Inc., priority 2016, published 2019).
Structures can show the parent of a compound that is named as a salt.

Key:
Type in all cases: biochemical
[1] = biological target: T1, human CGT (ceramide galactosyltransferase), CHO/CGT lysate (Homo sapiens, UniProt Q16880); test: CGT enzyme assay, RapidFire/MS/MS readout (Table 1 ranges with one asterisk *); conditions: RapidFire method (range with one asterisk *)
T1 construct: Full-length human CGT cDNA was cloned into the BamH1/Xho1 site of pcDNA3.1 (+); expressed in transfected cells; host or cells: Chinese hamster ovary (CHO) cells; lysate prepared with M-PER
T1 sequence (Q16880 21-541): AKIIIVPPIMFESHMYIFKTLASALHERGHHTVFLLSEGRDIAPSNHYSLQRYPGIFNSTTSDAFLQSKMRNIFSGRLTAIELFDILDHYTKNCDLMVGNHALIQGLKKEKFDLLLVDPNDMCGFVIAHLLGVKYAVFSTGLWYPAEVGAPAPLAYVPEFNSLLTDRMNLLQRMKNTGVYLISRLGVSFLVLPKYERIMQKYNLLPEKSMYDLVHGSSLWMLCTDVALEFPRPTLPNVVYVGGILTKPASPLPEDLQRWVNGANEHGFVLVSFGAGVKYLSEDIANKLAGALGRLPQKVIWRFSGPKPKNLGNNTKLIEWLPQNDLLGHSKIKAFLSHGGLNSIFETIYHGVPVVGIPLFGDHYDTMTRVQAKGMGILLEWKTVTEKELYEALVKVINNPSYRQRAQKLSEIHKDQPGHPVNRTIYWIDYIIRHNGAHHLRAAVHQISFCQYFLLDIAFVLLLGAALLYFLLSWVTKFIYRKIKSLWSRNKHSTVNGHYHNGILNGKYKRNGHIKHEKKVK
How it was run: (§1)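 Lysate (4 μg) of CHO cells transfected with full-length human CGT incubated 1 h at 37 °C with compound (0.001–50 μM) in pH 7.2 HEPES buffer with 10 μM C6-NBD-dihydro-ceramide, 17.5 μM UDP-galactose, Mg2+/Mn2+, CHAPS, BSA, 0.5% DMSO; ** set also contained 0.01% Tween 80. Product quantified by RapidFire/MS/MS, normalized to internal standard; IC50 from sigmoidal variable-slope fits.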

[2] = biological target: T1, human CGT (ceramide galactosyltransferase), CHO/CGT lysate; test: CGT enzyme assay, RapidFire/MS/MS readout with 0.01% Tween added (Table 1 ranges with two asterisks **); conditions: CGT enzyme assay, RapidFire/MS/MS method with 0.01% Tween added (range with two asterisks **)
How it was run: as §1

[3] = biological target: T1, human CGT (ceramide galactosyltransferase), CHO/CGT lysate; test: CGT enzyme assay, LC-MS/MS readout (Table 1 ranges without asterisk); conditions: LC-MS/MS method (range without asterisk)
How it was run: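 Lysate of CHO cells transfected with full-length human CGT incubated 1 h at 37 °C with compound (0.001–50 μM) in HEPES pH 7.2 with 17.5 μM UDP-galactose and C12:0 (2R-OH) ceramide substrate, 0.5% DMSO, no Tween 80. Galactosylceramide product quantified by LC-MS/MS against C12 ceramide internal standard; IC50 calculated.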

SMILES	IC50 [1]	IC50 [2]	IC50 [3]
NC1CC2CCC(C1)N2C(=O)[C@@H](NS(=O)(=O)c1ccc2cc(OC3CCCC3)ccc2c1)C(F)(F)c1ccc(Br)cc1 (stereo partly drawn) [Compound 5-1, N-((2R)-3-(3-amino-8-azabicyclo[3.2.1]octan-8-yl)-1-(4-bromophenyl)-1,1-difluoro-3-oxopropan-2-yl)-6-(cyclopentyloxy)naphthalene-2-sulfonamide]	< 1 µM	< 1 µM	< 1 µM
CC(C)Oc1ccc2cc(S(=O)(=O)N[C@H](C(=O)N3C4CCC3CC(N)C4)C(F)(F)c3ccc(Cl)cc3)ccc2c1 (stereo partly drawn) [Compound 8-1, N-((2R)-3-(3-amino-8-azabicyclo[3.2.1]octan-8-yl)-1-(4-chlorophenyl)-1,1-difluoro-3-oxopropan-2-yl)-6-isopropoxynaphthalene-2-sulfonamide trifluoroacetate]	1 to 10 µM	–	1 to 10 µM
CC(C)Oc1ccc2cc([C@@H](O)C(=O)N[C@@H](C(=O)N3C4CCC3CC(N)C4)C(F)(F)c3ccc(Br)cc3)ccc2c1 (stereo partly drawn) [Compound 19-4, (2R)—N-((2S)-3-(3-amino-8-azabicyclo[3.2.1]octan-8-yl)-1-(4-bromophenyl)-1,1-difluoro-3-oxopropan-2-yl)-2-hydroxy-2-(6-isopropoxynaphthalen-2-yl)acetamide trifluoroacetate]	30 to 100 µM	–	30 to 100 µM
CC(C)Oc1ccc2cc(S(=O)(=O)N[C@H](C(=O)N3C4CCC3CC(N)C4)C(F)(F)c3ccc(Br)cc3)ccc2c1 (stereo partly drawn) [Compound 1-1, N-((2R)-3-(3-amino-8-azabicyclo[3.2.1]octan-8-yl)-1-(4-bromophenyl)-1,1-difluoro-3-oxopropan-2-yl)-6-isopropoxynaphthalene-2-sulfonamide]	1 to 10 µM	–	1 to 10 µM
CC[C@@H](C)Oc1ccc2cc(S(=O)(=O)N[C@H](C(=O)N3C4CCC3CC(N)C4)C(F)(F)c3ccc(Br)cc3)ccc2c1 (stereo partly drawn) [Compound 13-1, N-((2R)-3-(3-amino-8-azabicyclo[3.2.1]octan-8-yl)-1-(4-bromophenyl)-1,1-difluoro-3-oxopropan-2-yl)-6-((R)-sec-butoxy)naphthalene-2-sulfonamide]	–	–	1 to 10 µM
CC(C)Oc1ccc2cc([C@H](O)C(=O)N[C@H](C(=O)N3C4CCC3CC(N)C4)C(F)(F)c3ccc(Br)cc3)ccc2c1 (stereo partly drawn) [Compound 19-3, (2S)—N-((2R)-3-(3-amino-8-azabicyclo[3.2.1]octan-8-yl)-1-(4-bromophenyl)-1,1-difluoro-3-oxopropan-2-yl)-2-hydroxy-2-(6-isopropoxynaphthalen-2-yl)acetamide trifluoroacetate]	–	–	1 to 10 µM
CCCCCCOc1ccc(S(=O)(=O)N[C@H](C(=O)N2C3CCC2CC(N)C3)C(F)(F)c2ccc(Br)cc2)cc1 (stereo partly drawn) [Compound 23-1, N-((2R)-3-(3-amino-8-azabicyclo[3.2.1]octan-8-yl)-1-(4-bromophenyl)-1,1-difluoro-3-oxopropan-2-yl)-4-(hexyloxy)benzenesulfonamide]	–	–	1 to 10 µM
